{"source": "patent US9403774B2", "about": "“Guanidine and amine substituted tetrahydroisoquinoline compounds as factor xia inhibitors” (BRISTOL-MYERS SQUIBB COMPANY, priority 2012, dated 2016)", "note": "Structures can show the parent of a compound that is named as a salt."}
{"target": "purified human Factor XIa (Homo sapiens (Human), UniProt P03951)", "sequence (P03951 388-625)": "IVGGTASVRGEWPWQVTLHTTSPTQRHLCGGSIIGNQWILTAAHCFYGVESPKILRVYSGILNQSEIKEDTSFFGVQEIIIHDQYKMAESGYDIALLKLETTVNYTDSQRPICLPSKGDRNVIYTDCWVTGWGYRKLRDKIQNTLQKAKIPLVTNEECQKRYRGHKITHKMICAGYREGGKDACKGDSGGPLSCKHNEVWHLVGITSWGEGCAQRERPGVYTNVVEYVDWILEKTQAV", "sequence (P03951 19-387 partner)": "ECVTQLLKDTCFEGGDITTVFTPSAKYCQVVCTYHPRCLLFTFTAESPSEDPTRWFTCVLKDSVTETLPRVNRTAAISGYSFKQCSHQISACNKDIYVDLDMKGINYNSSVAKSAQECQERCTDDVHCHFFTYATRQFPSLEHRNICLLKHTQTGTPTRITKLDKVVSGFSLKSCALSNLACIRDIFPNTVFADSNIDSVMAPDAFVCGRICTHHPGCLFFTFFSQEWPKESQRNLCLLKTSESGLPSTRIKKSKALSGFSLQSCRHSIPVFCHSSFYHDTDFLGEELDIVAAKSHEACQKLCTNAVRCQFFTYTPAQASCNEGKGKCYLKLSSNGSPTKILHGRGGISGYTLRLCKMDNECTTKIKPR", "experiment": "Factor XIa assay (chromogenic substrate S-2366 hydrolysis)", "format": "biochemical", "conditions": "substrate S-2366, pH 7.4", "protocol": "The effectiveness of compounds of the present invention as inhibitors of the coagulation factors XIa, VIIa, IXa, Xa, XIIa, plasma kallikrein or thrombin, can be determined using a relevant purified serine protease, respectively, and an appropriate synthetic substrate. The rate of hydrolysis of the chromogenic or fluorogenic substrate by the relevant serine protease was measured both in the absence and presence of compounds of the present invention. […] A decrease in the rate of absorbance or fluorescence change in the presence of inhibitor is indicative of enzyme inhibition. Such methods are known to one skilled in the art. The results of this assay are expressed as the inhibitory constant, Ki.\nFactor XIa determinations were made in 50 mM HEPES buffer at pH 7.4 containing 145 mM NaCl, 5 mM KCl, and 0.1% PEG 8000 (polyethylene glycol; JT Baker or Fisher Scientific). Determinations were made using purified human Factor XIa at a final concentration of 75-200 pM (Haematologic Technologies) and the synthetic substrate S-2366 (pyroGlu-Pro-Arg-pNA; CHROMOGENIX® or AnaSpec) at a concentration of 0.0002-0.001 M.\nThe Michaelis constant, Km, for substrate hydrolysis by each protease, was determined at 25° C. using the method of Lineweaver and Burk. Values of Ki were determined by allowing the protease to react with the substrate in the presence of the inhibitor. Reactions were allowed to go for periods of 20-180 minutes (depending on the protease) and the velocities (rate of absorbance or fluorescence change versus time) were measured. The following relationships were used to calculate Ki values: (vo−vs)/vs=I/(Ki(1+S/Km)) for a competitive inhibitor with one binding site; or vs/vo=A+((B−A)/1+((IC50/(I)n))); and Ki═IC50/(1+S/Km) for a competitive inhibitor where: […]", "units": {"Ki": "nM"}}
{"smiles": "CNC(=O)c1ccc(-c2cccc3c2CCN(C(=O)[C@H]2CC[C@H](CN)CC2)C3C(=O)Nc2ccc(C(=O)O)cc2)cc1", "note": "(stereo partly drawn) [Example 4, 4-(2-((1r,4r)-4-(aminomethyl)cyclohexanecarbonyl)-5-(4-(methylcarbamoyl)phenyl)-1,2,3,4-tetrahydroisoquinoline-1-carboxamido)benzoic acid, TFA Salt]", "Ki": "< 5"}
{"smiles": "NC[C@H]1CC[C@H](C(=O)N2CCc3ccccc3[C@H]2C(=O)Nc2ccc(C(=O)O)cc2)CC1", "note": "[Example 32, 4-((S)-2-((1r,4S)-4-(aminomethyl)cyclohexanecarbonyl)-1,2,3,4-tetrahydroisoquinoline-1-carboxamido)benzoic acid, TFA salt]", "Ki": 84.6}
{"smiles": "COC1CCN(c2cccc3c2CCN(C(=O)c2ccc(N)cc2)C3C(=O)Nc2ccc(C(=O)O)cc2)CC1", "note": "(stereo not drawn) [Example 1, 4-(2-(4-aminobenzoyl)-5-(4-methoxypiperidin-1-yl)-1,2,3,4-tetrahydroisoquinoline-1-carboxamido)benzoic acid, bis-TFA salt]", "Ki": 542}
{"smiles": "CC1(C)Cc2c(-c3ccc4ncccc4c3)cccc2C(C(=O)Nc2ccc(C(=O)O)cc2)N1C(=O)[C@H]1CC[C@H](CN)CC1", "note": "(stereo partly drawn) [Example 26]", "Ki": 48.3}
{"smiles": "CC1(C)Cc2c(-c3cc4ccccc4s3)cccc2C(C(=O)Nc2ccc(C(=O)O)cc2)N1C(=O)[C@H]1CC[C@H](CN)CC1", "note": "(stereo partly drawn) [Example 20]", "Ki": 782}
{"smiles": "CC1(C)Cc2c(-c3ccc4c(c3)OCO4)cccc2C(C(=O)Nc2ccc(C(=O)O)cc2)N1C(=O)[C@H]1CC[C@H](CN)CC1", "note": "(stereo partly drawn) [Example 16]", "Ki": 166}
